From patent US20090156646A1, “PYRIDYLPHENOL COMPOUND AND USE THEREOF” (TAKEDA PHARMACEUTICAL COMPANY LIMITED, priority 2005, published 2009)
pIC50: −log10 of the molar value. Where a name gives a salt, the structure may show the parent alone.

Legend:
[1] = target: T1, human metastin receptor hOT7T175 (Homo sapiens, UniProt Q969F8, L364H); experiment: binding inhibiting activity: 125I-metastin (40-54) binding to cell membrane fraction of h175 KB34 cells; details: room temperature 60 minutes, read-out: binding inhibiting activity, represented by the IC50 value
T1 construct: encoding the entire length of human metastin receptor hOT7T175; expressed in transfected cells; host or cells: CHO/dhFr- cells (ATCC #CRL-9096) stably transfected with pAKKO-hOT7T175; clone h175-16 was used as whole cells for FLIPR
Outline: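 The assay buffer (pH 7.4 Tris with magnesium acetate, EGTA and a protease-inhibitor cocktail) was used either plain or supplemented with 1 mg/ml BSA. The radioligand was 125I-labelled human metastin (40-54). The receptor source was a 250-fold diluted membrane fraction of the stable CHO/dhfr− line h175 KB34.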

[2] = target: T1, human metastin receptor hOT7T175; experiment: FLIPR assay of metastin-induced change in intracellular calcium in h175-16 cells (antagonist activity); assay type: cell-based; details: human metastin (40-54) as ligand, Fluo-3 fluorescence
Experimental: cDNA fragments (SEQ ID NO: 2) encoding the entire length of human metastin receptor hOT7T175 were incorporated into expression vector pAKKO1.11H to produce animal cell expression plasmids pAKKO-hOT7T175. CHO/dhFr-cells (ATCC, #CRL-9096) were seeded onto 6 cm culture dishes (Becton Dickinson) at a density of 0.3×10^6 cells/dish, and cultured in the conditions of 48 hours, 37° C. and 5% CO2. 5 μg pAKKO-hOT7T175 plasmid DNA was transfected to the resultant cells by a known method (described in Example 3 of WO 00/24890) using the Cellphect Transfection Kit (Amersham, #27-9268-01). The DNA-transfected cells were cultured in the Dulbecco's modified Eagle medium (DMEM) (Sigma, #D6046) containing 10% dialyzed FBS (Biowest, #S180D), 1× Non-Essential Amino Acid (Invitrogen, #11140-050) and 50 μg/ml Gentamycin (Invitrogen, #15750-060; and cell strains stably expressing the plasmid genes were selected. The obtained 41 clones were treated with the FLIPR assay (in accordance with the method described in Example 3 of WO 00/24890), and the reactivity to the human metastin […] (Nos. 40 to 54 of the human metastin sequence; Peptide Institute, Inc., #4389-v) was evaluated. In the end, h175 KB34 cell strains were selected. By substantially the same method, h175-16 cell strains were also produced.
The h175-16 cell strains prepared in Test Example 1 were seeded onto a 96-well plate (Corning, #3904) at 3×10^4 cell/well, and cultured for 24 hours on a CO2 incubator (cell seeding plate).
A calcium kit buffer containing 0.1% BSA [20 mM HEPES, 115 mM NaCl, 5.4 mM KCl, 0.8 mM MgCl2, 1.8 mM CaCl2, 13.8 mM D-glucose, pH 7.4, with an attached calcium kit produced by Dojin] was prepared and kept warm at 37° C. Then, the medium in the wells of the cell seeding plate was removed, and […] of the calcium kit buffer was added to each well. 50 μl 250 mM Probenecid (with an attached calcium kit produced by Dojin), 80 μl 5% Pluronic F-127 (with an attached calcium kit produced by Dojin) and 25 μl Fluo-3 AM (powder with an attached calcium kit produced by Dojin was dissolved in DMSO at 1 mg/ml) were added to the calcium kit buffer containing 5 ml 0.1% BSA (an amount for measuring one plate) to prepare a loading solution. 50 μl of the loading solution was added to each well to allow a reaction at 37° C. for 1 hour. Thus, Fluo-3 AM was loaded onto the cells. Then, the solution in each well was removed, and 100 μl of the calcium kit buffer containing 1.25 mM Probenecid and 0.1% BSA was added to each well.
50 μl of a test compound diluted with the calcium kit buffer containing 0.1% BSA was added to each well, and stirred by a plate shaker. A cell plate, and a ligand plate provided with human metastin (40-54) (AnyGen) diluted to 400 μM with the calcium kit buffer containing 0.1% BSA, were set to the Fluorometric Imaging Plate Reader (FLIPR, Molecular Devices), and […] was added to each well using an automatic divider in the FLIPR. A change in the calcium concentration in the cells, which corresponded to the ligand response, was measured by a CCD camera in the FLIPR as a change in the amount of fluorescence of Fluo-3. The obtained change in the amount of fluorescence was plotted against the concentration of the test compound, and the compound concentration at which 50% of the change in the amount of fluorescence (i.e., IC50 value) was inhibited was calculated.

blood LH level = experiment: Suppression of the blood LH level of castrated rats; assay type: in vivo, rat; details: male castrated Wistar rats
Experimental: The compound of Example 303 was intravenously administered to male castrated rats, and the blood LH level was measured. Male Wistar rats (Japan SLC, Inc.), which were castrated 7 days before the experiment and were 11 weeks old at the time of the experiment, were used. […] To the control animals (n=8), only 20% DMSO-[…]% PEG400 used as a dispersion medium was intravenously administered in an amount of 0.8 ml/kg every 10 minutes, 5 times in succession. […] The LH concentration in the plasma was measured by radioimmunoassay. […] The start time of the administration was set to 0 (represented with the arrow).

T1 sequence (Q969F8 whole entry L364H): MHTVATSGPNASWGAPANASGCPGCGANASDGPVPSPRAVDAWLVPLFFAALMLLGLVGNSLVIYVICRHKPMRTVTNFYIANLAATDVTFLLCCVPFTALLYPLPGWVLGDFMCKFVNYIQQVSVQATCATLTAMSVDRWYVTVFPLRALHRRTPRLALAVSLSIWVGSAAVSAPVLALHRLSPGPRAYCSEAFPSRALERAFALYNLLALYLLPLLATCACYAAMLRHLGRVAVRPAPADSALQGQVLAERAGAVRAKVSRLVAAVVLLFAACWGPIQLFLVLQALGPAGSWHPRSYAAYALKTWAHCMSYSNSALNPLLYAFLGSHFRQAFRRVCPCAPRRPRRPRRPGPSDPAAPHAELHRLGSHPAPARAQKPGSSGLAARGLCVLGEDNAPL

Row | Compound | pIC50 [1] | pIC50 [2] | melting point [°C] | blood LH concentration, % of that of the control group (blood LH level; intravenous 0.22 mg/kg every 10 minutes 5 times, 60 minutes after the start of administration, P<0.01) [%] | effect on blood LH concentration (in words) (blood LH level; intravenously administered)
1 | Cl.N#Cc1c(-c2cccc(NC(=O)CCN)c2)cc(-c2ccccc2O)nc1NC(=O)c1cccs1 [Example 14, N-{4-[3-(β-alanylamino)phenyl]-3-cyano-6-(2-hydroxyphenyl)pyridin-2-yl}thiophene-2-carboxamide hydrochloride] | ≥ 5.00 | ≥ 5.00 | 223 to 228 |  | 
2 | NCCC(=O)Nc1cccc(-c2cc(NC(=O)c3cccs3)nc(-c3ccccc3O)c2)c1 [Example 27, N-{4-[3-(β-alanylamino)phenyl]-6-(2-hydroxyphenyl)pyridin-2-yl}thiophene-2-carboxamide dihydrochloride] | ≥ 5.00 | ≥ 5.00 |  |  | 
3 | N#Cc1c(-c2cccc(NC(=O)CCCN)c2)cc(-c2ccccc2O)nc1NC(=O)c1cccs1 [Example 23, N-[4-{3-[(4-aminobutanoyl)amino]phenyl}-3-cyano-6-(2-hydroxyphenyl)pyridin-2-yl]thiophene-2-carboxamide dihydrochloride] | ≥ 5.00 | ≥ 5.00 |  |  | 
4 | Cl.N#Cc1c(-c2cccc(C(=O)NCCN)c2)cc(-c2ccccc2O)nc1NC(=O)c1cccs1 [Example 3, N-[4-(3-{[(2-aminoethyl)amino]carbonyl}phenyl)-3-cyano-6-(2-hydroxyphenyl)pyridin-2-yl]thiophene-2-carboxamide hydrochloride] | ≥ 5.00 | ≥ 5.00 | 203 to 210 |  | 
5 | N#Cc1c(-c2cccc(NC(=O)CN)c2)cc(-c2ccccc2O)nc1NC(=O)c1cccs1 [Example 12, N-[3-cyano-4-[3-(glycylamino)phenyl]-6-(2-hydroxyphenyl)pyridin-2-yl]thiophene-2-carboxamide dihydrochloride] | ≥ 5.00 | ≥ 5.00 |  |  | 
6 | Cl.N#Cc1c(-c2cccc(C(=O)N3CCC(N)CC3)c2)cc(-c2ccccc2O)nc1NC(=O)c1cccs1 [Example 5, N-[4-{3-[(4-aminopiperidine-1-yl)carbonyl]phenyl}-3-cyano-6-(2-hydroxyphenyl)pyridin-2-yl]thiophene-2-carboxamide hydrochloride] | ≥ 5.00 |  | 215 to 218 |  | 
7 | C[C@H](N)CC(=O)Nc1cccc(-c2cc(-c3ccc(Cl)cc3O)nc(NC(=O)c3nccs3)c2C#N)c1.Cl [Example 269, N-[4-(3-{[(3S)-3-aminobutanoyl]amino}phenyl)-6-(4-chloro-2-hydroxyphenyl)-3-cyanopyridin-2-yl]-1,3-thiazole-2-carboxamide hydrochloride] | ≥ 5.00 |  | 218 to 221 |  | 
8 | CN(C)[C@H]1CCCC[C@H]1C(=O)Nc1cccc(-c2cc(-c3ccc(F)cc3O)nc(NC(=O)c3ccco3)c2C#N)c1.Cl [Example 287, N-{3-cyano-4-[3-({[(1R,2S)-2-(dimethylamino)cyclohexyl]carbonyl}amino)phenyl]-6-(4-fluoro-2-hydroxyphenyl)pyridin-2-yl}-2-furamide hydrochloride] | ≥ 5.00 |  | 217 to 218 |  | 
9 | Cl.N#Cc1c(-c2ccc(F)c(C(=O)NCCN)c2)cc(-c2ccc(F)cc2O)nc1NC(=O)c1ccco1 [Example 281, N-[4-(3-{[(2-aminoethyl)amino]carbonyl}-4-fluorophenyl)-3-cyano-6-(4-fluoro-2-hydroxyphenyl)pyridin-2-yl]-2-furamide hydrochloride] | ≥ 5.00 |  | 255 to 264 |  | 
10 | Cl.N#Cc1c(-c2cccc(NC(=O)C3(N)CCC3)c2)cc(-c2ccc(Cl)cc2O)nc1NC(=O)c1ccco1 [Example 65, N-[4-(3-{[(1-aminocyclobutyl)carbonyl]amino}phenyl)-6-(4-chloro-2-hydroxyphenyl)-3-cyanopyridin-2-yl]-2-furamide hydrochloride] | ≥ 5.00 |  | 195 to 200 |  | 

Now from value to compound, other results behind:

Row | pIC50 [1] | pIC50 [2] | melting point [°C] | Compound | blood LH concentration, % of that of the control group (blood LH level; intravenous 0.22 mg/kg every 10 minutes 5 times, 60 minutes after the start of administration, P<0.01) [%] | effect on blood LH concentration (in words) (blood LH level; intravenously administered)
11 | ≥ 5.00 |  | 197 to 199 | CC(C)NC(C)CC(=O)Nc1cccc(-c2cc(-c3ccc(F)cc3O)nc(NC(=O)c3ccco3)c2C#N)c1.Cl (stereo not drawn) [Example 321, N-[3-cyano-6-(4-fluoro-2-hydroxyphenyl)-4-(3-{[3-(isopropylamino)butanoyl]amino}phenyl)pyridin-2-yl]-2-furamide hydrochloride] |  | 
12 | ≥ 5.00 |  | 200 to 204 | CCN(CC)CCNC(=O)c1cccc(-c2cc(-c3ccc(F)cc3O)nc(NC(=O)c3ccco3)c2C#N)c1.Cl [Example 310, N-[3-cyano-4-[3-({[2-(diethylamino)ethyl]amino}carbonyl)phenyl]-6-(4-fluoro-2-hydroxyphenyl)pyridin-2-yl]-2-furamide hydrochloride] |  | 
13 | ≥ 5.00 |  | 285 to 288 | Cl.N#Cc1c(-c2cccc(C(=O)N[C@@H]3CCCC[C@H]3N)c2)cc(-c2ccc(F)cc2O)nc1NC(=O)c1ccco1 (racemic) [Example 289, N-{4-[3-({[(1SR,2SR)-2-aminocyclohexyl]amino}carbonyl)phenyl]-3-cyano-6-(4-fluoro-2-hydroxyphenyl)pyridin-2-yl}-2-furamide hydrochloride] |  | 
14 | ≥ 5.00 |  | 193 to 195 | CCN(CC)C(C)CC(=O)Nc1cccc(-c2cc(-c3ccc(F)cc3O)nc(NC(=O)c3ccco3)c2C#N)c1.Cl (stereo not drawn) [Example 339, N-[3-cyano-4-(3-{[3-(diethylamino)butanoyl]amino}phenyl)-6-(4-fluoro-2-hydroxyphenyl)pyridin-2-yl]-2-furamide hydrochloride] |  | 
15 | ≥ 5.00 |  |  | Cl.N#Cc1c(-c2cccc(N3CCNCC3)c2)cc(-c2ccc(F)cc2O)nc1NC(=O)c1ccco1 [Example 303, N-[3-cyano-6-(4-fluoro-2-hydroxyphenyl)-4-(3-piperazin-1-ylphenyl)pyridin-2-yl]-2-furamide hydrochloride] | 68 | significantly decreasing the blood LH concentration
